According to patent US6160008A, “Pharmaceutical compositions comprising S-alkylisothiouronium derivatives” (priority 1996, dated 2000):
Entries after “also recorded” stand apart in the source; their conditions may differ. Where two headings read alike, the source gives them in different places.

What was measured:
[1] = tested on: rats exposed to an oxygen pressure of 6 atm; assay: Toxic effect of oxygen at a pressure of 6 atm in rats (Tables 16-18); type: in vivo, white rats; conditions: 20 mg/kg i.p.
Method: Experiments on the toxic effect of oxygen at a pressure of 6 atm were carried out similarly in a hyperbaric chamber C-203 (chamber volume 0.45 m^3), on white rats, during 50 minutes. The preparation was injected intraperitoneally at a dose of 20 mg/kg. In the controls, 2 ml/kg of water for injections was injected intraperitoneally. After decompression the rats were decapitated and the glucose content, urea content, ureal nitrogen and total hemoglobine content were determined in the blood serum, as well as the index <<lung mass in gr./body mass in gr. X 100>> (i.e. lung coefficient).

[2] = tested on: acid-base balance and gas composition of arterial blood; assay: Acid-base balance and gas composition of arterial blood in hemorrhagic shock (Table 6); type: in vivo, cats
Method: The influence of S-ethylisothiouronium diethylphosphate on the major indices of the blood acid-base state (AAS) and gas content in hemorrhagic shock was studied at a dose of 5 mg/kg. The cats were narcotized intraperitoneally with pentobarbital sodium (nembutal) at a dose of 40 mg/kg. The blood loss was caused by blood-letting from the common carotid artery in an amount of 3.2% of the animal body mass, which approximately corresponds to 45-47% of the blood circulation volume. The blood-letting was carried out during 3-5 minutes. Tension characteristics of oxygen and carbon dioxide in arterial (PaO2, PaCO2) and mixed venous (PvO2, PvCO2) blood, pHa and pH were studied by Astrup micromethod. The hemoglobin content (Hb) was determined by the cianohemoglobin method. Bicarbonate ion content /HCO3 was calculated with the help of the Severinghause ruler. Calculations were carried out on the CM-1403-02 computer in the Forhtran language program. Indices of the acid-base balance and blood gas content were studied in the initial state, on the 30th minute after acute bleeding as well as on 2nd, 10th, 30th, and 60th minute after the medicine injection. The substance was injected singly intravenously on the 30th minute after the blood-letting.
In the test group (n=6), S-ethylisothiouronium diethylphosphate was injected at a dose of 5 mg/kg.

[3] = tested on: rats exposed to an oxygen pressure of 3 atm; assay: Survival under oxygen pressure of 3 atm, rats (Table 15); type: in vivo, Wistar rat; conditions: 5 hours
Method: Animals were exposed to oxygen under increased pressure in a hyperbaric chamber <<Mana-2≤≤ for treatment of infants above 1 year, which was adjusted for the experiments on animals. The hyperbaric chamber design permitted to create excessive pressure up to 3 atm and to observe animal behavior from outside.
The experiments were performed on males of F1 (CBAx57B1) mice line and on males of Wistar rat line. Animals were placed in the hyperbaric chamber in plastic boxes and the atmospheric air was replaced by oxygen. The period of compression-decompression was 10 minutes. The exposure of the animals to an oxygen pressure of 3 atm during a period of 2 hours caused only some increase in their motion activity. Further staying of rats and mice in those conditions led to a decrease in the motion activity, to asphyxia with short periods of excitement and cramps. The death of some animals was registered after 2.5-3 hours, 50% after 4 hours, and 75% of mice and 100% of rats were dead after 5 hours.
When the influence of Difetur and Etyron was studied, the animals were exposed to an oxygen pressure of 3 atm during 5 hours if not otherwise specified. Preparations were injected 5-10 minutes before the session.

[4] = in vivo, cited from earlier work
[5] = tested on: system hemodynamic indices during hemorrhagic shock; assay: System hemodynamic indices during hemorrhagic shock (Table 4); type: in vivo, cats
Method: For the experimental model of hemorrhagic shock closely resembling acute clinical situations, acute blood loss in cats was chosen (3.2% of the body mass) which constitutes 45-47% of the blood circulation volume during 3-5 minutes. To determine maximum efficiency and effective duration, parameters of the system blood circulation were determined before blood-letting and in 30 minutes after blood-letting, as well as on the 2nd, 10th, 30th and 60th minutes after intravenous injection of the medicine.

arterial blood pressure = assay: Clinical testing under spinal epidural anesthesia; type: in vivo, patients; conditions: urological operations
Method: This experiment was conducted at the General Anesthesia Department of the First Republican Hospital of Moldova. The goal of this clinical study was to estimate the ability of Difetur to act as a hypertensive drug, compared to the known adrenergic drug--ephedrine. The experiments were performed on one hundred patients, underwent urological operations under spinal epidural anesthesia, their age being between 20 and 80. The following findings are presented in view of Difetur: […]

[6] = 5 mg/kg i.v., 10 min after injection
[7] = 5 mg/kg i.v., 30 min after injection
[8] = 5 mg/kg i.v., 60 min after injection
[9] = 5 mg/kg i.v., 2 min after injection

Structure (SMILES): CCSC(=N)N [S-ethylisothiouronium diethylphosphate]
- Asphyxia, animal number ([1]; 36 rats): 0
- Generalized cramps, % of animals ([1]; 36 rats): 2.8%
- Generalized cramps, animal number ([1]; 36 rats): 1
- Lateral position, animal number ([1]; 36 rats): 0
- Number of perished rats ([1]; 36 rats): 0
- Lung coefficient (lung mass in gr./body mass in gr. X 100) ([1]; Average ± SD, 16 animals): 0.474 ± 0.024
- Glucose (blood serum) ([1]; M ± m, n = 16): 5.765 ± 0.214
- Hemoglobin (blood serum) ([1]; M ± m, n = 16): 2.028 ± 0.048
- Urea (blood serum) ([1]; M ± m, n = 16): 4.643 ± 0.212
- Urea Nitrogen (blood serum) ([1]; M ± m, n = 16): 2.163 ± 0.099
- Protection at 6 atm in words ([1]; rats, listed as Difetur): improve blood serum biochemical indices; also recorded: efficiently protect lungs from the toxic effect of increased oxygen pressure; also recorded: did not practically effect the hemoglobin content but considerably improved other indices; also recorded: significantly reduced the <<lung mass in gr./body mass>> index; also recorded: completely prevented animals' death and reduced other visible consequences of the oxygen poisoning
- Bicarbonate ion content increase, arterial blood ([2]; 5 mg/kg i.v., 10th minute): 5%
- Bicarbonate ion content increase, arterial blood ([2]; 5 mg/kg i.v., 30th minute): 16%
- Bicarbonate ion content (HCO3 a) [2, 6]: 15.583 ± 1.333 mmol/L
- Buffer bases (Bba) [2, 6]: 34.150 ± 1.364 mmol/L
- Buffer bases shift (Bea) [2, 6]: -7.866 ± 1.095 mmol/L
- Carbonic acid gas tension (PaCO2) [2, 6]: 28.616 ± 2.858 mm Hg
- Oxygen tension (PaO2) [2, 6]: 94.483 ± 6.012
- pHa [2, 6]: 7.252±0.018
- Decrease of partial pressure of carbon dioxide (arterial and venous blood) ([2]; 5 mg/kg i.v., 10 minute, vs 30th minute after blood letting): 9%
- Bicarbonate ion content (HCO3 a) [2, 7]: 17.083 ± 1.065 mmol/L
- Buffer bases (Bba) [2, 7]: 34.966 ± 3.534 mmol/L
- Buffer bases shift (Bea) [2, 7]: -8.016 ± 1.436 mmol/L
- Carbonic acid gas tension (PaCO2) [2, 7]: 31.083 ± 1.933 mm Hg
- Oxygen tension (PaO2) [2, 7]: 95.466 ± 7.144
- pHa [2, 7]: 7.310±0.064
- Bicarbonate ion content (HCO3 a) [2, 8]: 15.900 ± 3.033 mmol/L
- Buffer bases (Bba) [2, 8]: 32.733 ± 5.616 mmol/L
- Buffer bases shift (Bea) [2, 8]: -9.450 ± 3.903 mmol/L
- Carbonic acid gas tension (PaCO2) [2, 8]: 35.217 ± 7.339 mm Hg
- Oxygen tension (PaO2) [2, 8]: 85.550 ± 6.575
- pHa [2, 8]: 7.208 ± 0.036
- Effect on acid-base balance and blood gases in words ([2]; arterial blood, hemorrhagic shock): does not influence negatively the acid-base balance; also recorded: corrects the metabolic acidosis caused by the loss of blood; also recorded: it had the tendency to increase in the arterial blood, and to decrease in the venous blood
- Number of survived animals ([3]; 5 mg/kg): 60%
- Number of survived animals ([3]; 10 mg/kg): 50%
- Number of survived animals ([3]; 20 mg/kg): 70%
- Radioprotective effect in words [4]: radioprotective effect
- Radioprotective effect in words ([4]; listed as Difetur): distinct radioprotective effect
- AP increase compared to the 30th minute after bleeding ([5]; 5 mg/kg i.v., 2nd minute): 88%
- ALV [5, 9]: 166.6 ± 18.4 g/cm
- AP [5, 9]: 122.3 ± 6.0 mm Hg
- Central blood volume [5, 9]: 58.6 ± 4.1 mL
- HF [5, 9]: 182.0 ± 15.0 per min.
- MVC [5, 9]: 52.4 ± 6.0 mL/min/kg
- Number of blood circulations [5, 9]: 2.9 ± 0.2 min
- Pr [5, 9]: 202.8 ± 28.7 10^3 . din . c . cm^-3
- Stroke volume [5, 9]: 1.0 ± 0.1 mL
- ALV [5, 6]: 130.5 ± 15.4 g/cm
- AP [5, 6]: 112.5 ± 7.6 mm Hg
- Central blood volume [5, 6]: 49.2 ± 4.5 mL
- HF [5, 6]: 186.0 ± 14.1 per min.
- MVC [5, 6]: 46.0 ± 5.7 mL/min/kg
- Number of blood circulations [5, 6]: 3.0 ± 0.2 min
- Pr [5, 6]: 225.1 ± 56.6 10^3 . din . c . cm^-3
- Stroke volume [5, 6]: 0.9 ± 0.1 mL
- ALV [5, 7]: 75.9 ± 19.4 g/cm
- AP [5, 7]: 87.5 ± 15.4 mm Hg
- Central blood volume [5, 7]: 43.2 ± 4.7 mL
- HF [5, 7]: 179.1 ± 12.4 per min.
- MVC [5, 7]: 30.8 ± 5.5 mL/min/kg
- Number of blood circulations [5, 7]: 2.4 ± 0.3 min
- Pr [5, 7]: 244.7 ± 39.1 10^3 . din . c . cm^-3
- Stroke volume [5, 7]: 0.6 ± 0.1 mL
- ALV [5, 8]: 77.0 ± 17.0 g/cm
- AP [5, 8]: 84.2 ± 18.9 mm Hg
- Central blood volume [5, 8]: 45.5 ± 5.1 mL
- HF [5, 8]: 166.8 ± 15.2 per min.
- MVC [5, 8]: 35.7 ± 5.5 mL/min/kg
- Number of blood circulations [5, 8]: 3.5 ± 0.2 min
- Pr [5, 8]: 245.3 ± 62.6 10^3 . din . c . cm^-3
- Stroke volume [5, 8]: 0.7 ± 0.1 mL
- MVC increase ([5]; 5 mg/kg i.v., initially): 19%
- Effect in hemorrhagic shock in words ([5]; hemorrhagic shock, cats): the decrease in HR was noted; also recorded: SV increased only on the 2nd minute after the medicine injection; also recorded: Alv essentially increased on the 2nd and 10th minutes; also recorded: PR increased during the whole period of observation; also recorded: practically does not lose efficiency in case of metabolic acidosis; also recorded: improves system hemodynamic indices in hemorrhagic shock conditions; also recorded: the peripheral vascular resistance increases, the stroke volume and central blood volume increase, and the work of the left ventricle improves
- Duration of hypertensive action (arterial blood pressure): 40 to 60 min
- Time until blood pressure attains the initial value (arterial blood pressure): ≤ 90 min
- Clinical safety findings (arterial blood pressure; listed as Difetur): No cases of secondary hypertension were observed; also recorded: No complications of allergic type of the blood circulation or respiration were observed
- Effect on patient's blood pressure in words (arterial blood pressure; listed as Difetur): prevented the decrease in the patient's blood pressure; also recorded: blood pressure of the patients remained stable; also recorded: rapid and prolonged effect on arterial blood pressure
